Results on ten molecules are retold here after PubChem BioAssay (NCI).

Among the test systems are SF-295 CNS; NCI-H522 lung; CCRF-CEM leukemia; NCI-H226 lung; A549 NSCLC; SR leukemia; SW-620 colon; SF-268 CNS; OVCAR-8 ovarian; OVCAR-4 ovarian; KM12 colon; RXF 393 renal; SN12C renal; UO-31 renal.
Assay in all cases: NCI anticancer screen, dose series, 48 h

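Method: 48-hour compound exposure of cells in 96-well plates, five concentrations, linear interpolation of endpoints. TGI denotes the concentration required for complete inhibition of growth.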

In the case of `CN(C)C=NCc1ccc2c(c1)OCO2`, the TGI in the assay on SF-295 CNS, in the assay on NCI-H522 lung, in the assay with CCRF-CEM leukemia, with NCI-H226 lung, with A549 NSCLC and with SR leukemia was over 100 µM each time. The TGI in the assay on SW-620 colon, in the assay with SF-268 CNS, with OVCAR-8 ovarian, in the assay on OVCAR-4 ovarian, with KM12 colon and in the assay with RXF 393 renal was over 100 µM each time. Further, the TGI in the assay on SN12C renal and in the assay on UO-31 renal was over 100 µM throughout.
`CCOC(=O)CCC(NC(=O)c1ccc(OCc2ccc3nc(OC)c(OC)nc3c2)cc1)C(=O)OCC` (stereo unspecified): the TGI is over 100 µM in the assay with SF-295 CNS; 64.8 µM in the assay on NCI-H522 lung; 93.5 µM with CCRF-CEM leukemia; over 100 µM in the assay with NCI-H226 lung; over 100 µM with A549 NSCLC; over 100 µM with SR leukemia. Moreover, the TGI with SW-620 colon is over 100 µM; in the assay with SF-268 CNS it was over 100 µM; in the assay with OVCAR-8 ovarian, over 100 µM; in the assay on KM12 colon it was over 100 µM; in the assay on RXF 393 renal, 90.7 µM; in the assay with SN12C renal it was over 100 µM. The molecule further displayed a TGI in the assay on UO-31 renal of over 100 µM.
`Nc1nc(Cl)cc(NCC2(CO)CC(c3ccccc3)C2)n1` (stereo unspecified): the TGI in the assay with SF-295 CNS, with NCI-H522 lung, in the assay with CCRF-CEM leukemia, in the assay on NCI-H226 lung, in the assay on A549 NSCLC and with SR leukemia was over 100 µM throughout. The TGI with SW-620 colon, with SF-268 CNS, in the assay on OVCAR-8 ovarian, in the assay with OVCAR-4 ovarian, with KM12 colon and in the assay on RXF 393 renal was over 100 µM each time. Moreover, the TGI in the assay with SN12C renal and in the assay with UO-31 renal was over 100 µM each time.
With `CC(C)[Si](Oc1cc2c3c(ccc2c(O)c1[C@@H](C)CO[Si](C)(C)C(C)(C)C)C(C)(C)CCC3)(C(C)C)C(C)C`, the TGI with SF-295 CNS, with NCI-H522 lung, with CCRF-CEM leukemia, with NCI-H226 lung, in the assay with A549 NSCLC and with SR leukemia was over 100 µM in each case. The TGI in the assay on SW-620 colon, with SF-268 CNS, in the assay with OVCAR-8 ovarian, with OVCAR-4 ovarian, in the assay with KM12 colon and with RXF 393 renal was over 100 µM each time. The TGI with SN12C renal and in the assay with UO-31 renal was over 100 µM in each case.
Consider `N#CC12CC=C(c3ccccc3)N=C1NC(c1ccccc1)=CC2` (stereo unspecified), for which the TGI was over 100 µM in the assay on SF-295 CNS; over 100 µM in the assay with NCI-H522 lung; 77.7 µM in the assay with CCRF-CEM leukemia; over 100 µM with NCI-H226 lung; over 100 µM in the assay on A549 NSCLC; 82.2 µM with SR leukemia. Further, the TGI in the assay with SW-620 colon, in the assay on SF-268 CNS, in the assay on OVCAR-8 ovarian, with OVCAR-4 ovarian, in the assay on KM12 colon and with RXF 393 renal was over 100 µM throughout. For the same molecule, the TGI in the assay on SN12C renal and with UO-31 renal was over 100 µM each time.
On to `C=C(C)C1Cc2c(cc(OC)c3c(=O)c4ccccc4n(C)c23)O1` (stereo unspecified), for which the TGI was over 100 µM in the assay on SF-295 CNS; 34.3 µM with NCI-H522 lung; over 100 µM in the assay with CCRF-CEM leukemia; over 100 µM in the assay on NCI-H226 lung; over 100 µM in the assay with A549 NSCLC; over 100 µM in the assay on SR leukemia. The TGI in the assay on SW-620 colon, with SF-268 CNS, with OVCAR-8 ovarian, in the assay on OVCAR-4 ovarian, in the assay on KM12 colon and in the assay on RXF 393 renal was over 100 µM each time. Moreover, the TGI with SN12C renal and in the assay on UO-31 renal was over 100 µM throughout.
On to `c1csc(-c2ccc(-c3ccsc3)s2)c1`, for which the TGI in the assay on SF-295 CNS, in the assay with NCI-H522 lung, in the assay on CCRF-CEM leukemia, with NCI-H226 lung, in the assay with A549 NSCLC and in the assay with SR leukemia was over 100 µM throughout. The TGI in the assay with SW-620 colon, in the assay on SF-268 CNS, in the assay with OVCAR-8 ovarian, with OVCAR-4 ovarian, in the assay with KM12 colon and in the assay with RXF 393 renal was over 100 µM in each case. For the same molecule, the TGI with SN12C renal and in the assay with UO-31 renal was over 100 µM each time.
On to `CC1(Br)S(=O)(=O)OCCOS1(=O)=O`, for which the TGI in the assay on SF-295 CNS, with NCI-H522 lung, in the assay on CCRF-CEM leukemia, in the assay on NCI-H226 lung, in the assay with A549 NSCLC and in the assay with SR leukemia was over 100 µM each time. Besides, the TGI with SW-620 colon, in the assay with SF-268 CNS, in the assay on OVCAR-8 ovarian, with OVCAR-4 ovarian, with RXF 393 renal and in the assay on SN12C renal was over 100 µM in each case. Besides, the TGI with UO-31 renal is over 100 µM.
For the molecule `CC(C)(C)c1cc(Oc2ccc(C#N)c(C#N)c2)cc(C(C)(C)C)c1`, the TGI is over 100 µM in the assay on SF-295 CNS; over 100 µM in the assay with NCI-H522 lung; over 100 µM in the assay on CCRF-CEM leukemia; over 100 µM in the assay on NCI-H226 lung; over 100 µM in the assay with A549 NSCLC; 42.3 µM with SR leukemia. For the same molecule, the TGI in the assay with SF-268 CNS, in the assay on OVCAR-8 ovarian, with OVCAR-4 ovarian, with KM12 colon, in the assay with RXF 393 renal and in the assay with SN12C renal was over 100 µM each time. Also, the TGI in the assay on UO-31 renal was over 100 µM.
For `N#Cc1c(N)nc2c(N=Nc3ccccc3)c(N)nn2c1Nc1ccccc1`, the TGI with SF-295 CNS is 59.9 µM; in the assay with NCI-H522 lung, 39.9 µM; in the assay on CCRF-CEM leukemia it was over 100 µM; in the assay on NCI-H226 lung it was 53.9 µM; in the assay on A549 NSCLC it was 46.9 µM; in the assay on SR leukemia, 6.15 µM. In addition, the TGI came to 50.3 µM with SW-620 colon; 56.9 µM with SF-268 CNS; 14.2 µM with OVCAR-8 ovarian; 46.4 µM with OVCAR-4 ovarian; 18.1 µM in the assay on KM12 colon; 29.2 µM in the assay on RXF 393 renal. Moreover, in the assay with SN12C renal, the TGI is 27.7 µM.
